{
  "source": "patent US20070098781A1",
  "about": "“Modified release compositions for DPP-IV inhibitors” (priority 2005, published 2007)",
  "key": {"[1]": {"experiment": "Triple-cannulated cynomolgus monkey model: plasma PK after site-specific delivery", "assay_type": "in vivo", "conditions": "5 mg/kg; for AUC: plasma, 5 mg/kg in solution", "description": "(§1) A study was conducted in an in-house cynomolgus monkey model, in which permanent cannulae had been surgically attached to various sections of their intestine. This animal model allows compounds to be delivered to precise regions of the intestine in the intact animal in vivo. A single dose cross-over study was performed in three animals, where 5 mg/kg of (2S)-1-{[1,1-Dimethyl-3-(4-pyridin-3-yl-imidazol-1-yl)-propylamino]-acetyl}-pyrrolidine-2-carbonitrile was delivered (with sufficient wash out periods in between), in solution by gavage to the stomach or via the cannulae to the duodenum, the jejunum-ileum junction or the top of the ascending colon, respectively. An oral glucose challenge was performed in each animal for each treatment 2 hours post-dose of compound (plus a pre-study control). Full plasma PK and DPPIV inhibition profiles were obtained for each treatment. Blood glucose profiles were measured for 3 hours post-glucose challenge."}, "plasma DPPIV": {"tested_on": "plasma DPPIV", "experiment": "Triple-cannulated cynomolgus monkey model: plasma DPPIV inhibition after site-specific delivery", "assay_type": "in vivo", "conditions": "for Mean Plasma DPPIV Inhibition: 5 mg/kg in solution", "description": "as §1"}, "blood glucose": {"tested_on": "blood glucose", "experiment": "Triple-cannulated cynomolgus monkey model: blood glucose after oral glucose challenge", "assay_type": "in vivo", "conditions": "5 mg/kg; for Mean Delta Glucose AUEC: oral glucose challenge 2 hours post-dose", "description": "as §1"}, "[2]": {"experiment": "Pharmacoscintigraphic evaluation of regional drug absorption: plasma pharmacokinetics after site-specific gastrointestinal delivery (Enterion capsule)", "assay_type": "in vivo, human", "conditions": "400 mg, healthy volunteers; for AUC / Cmax: both sexes, human, plasma, oral; for AUC: read-out: Mean (SD) AUC; for Cmax: read-out: Mean (SD) Cmax", "description": "(§2) A pharmacoscintigraphic evaluation of the regional drug absorption and pharmacodynamics of (2S)-1-{[2-(5-Methyl-2-phenyl-oxazol-4-yl)-ethylamino]-acetyl}-pyrrolidine-2-carbonitrile mesylate in up to 9 healthy male or female volunteers following administration to four different sites of the gastrointestinal tract: stomach, proximal small bowel, ileum and ascending colon was carried out. The study was conducted as an open label, 4-way cross-over design consisting of 4 study periods of approximately 2-3 days duration, each separated by washout period of at least 4 days.\n(§3) During each study period, 400 mg (2S)-1-{[2-(5-Methyl-2-phenyl-oxazol-4-yl)-ethylamino]-acetyl}-pyrrolidine-2-carbonitrile mesylate was delivered to the appropriate gastrointestinal target using Enterion™ capsule technology. The capsule was administered with water containing a radiolabelled marker (^99mTc-DTPA) which was used to define the gastrointestinal anatomy and the movement of the capsule was followed by means of an ^111In marker within the device. The location of both radiolabels was monitored on images obtained from a dual wavelength gamma camera. Capsule activation and thereby drug release was achieved by applying an external signal. The release was planned to occur within 5 hours of the administration of a standardised low calorie meal.\n(§4) The pharmacokinetics of (2S)-1-{[2-(5-Methyl-2-phenyl-oxazol-4-yl)-ethylamino]-acetyl}-pyrrolidine-2-carbonitrile mesylate were determined after each administration by monitoring plasma concentrations of parent drug and metabolites. The pharmacodynamic response was assessed by measuring the concentrations of circulating markers (glucose, insulin, glucagon and GLP-1) for up to 4 hours following an oral glucose tolerance test (OGTT), which itself was carried out 2 hours after release of the drug substance. A control OGTT response (i.e. no drug treatment) was established for each subject before the first treatment period began."}, "[3]": {"tested_on": "circulating markers (glucose, insulin, glucagon and GLP-1)", "experiment": "Pharmacodynamic response after site-specific delivery: circulating markers following an oral glucose tolerance test (OGTT)", "assay_type": "in vivo, human", "conditions": "healthy volunteers, 400 mg; for Mean Delta Blood Glucose AUEC / Mean Plasma GLP-1 AUEC / Mean Plasma Insulin AUEC: OGTT 2 h after release, baseline corrected", "description": "as §2, §3, §4"}, "[4]": {"conditions": "delivery to the ileum-jejenum junction or colon, versus other sites"}, "[5]": {"conditions": "dosing region ascending colon (cannula)"}, "[6]": {"conditions": "dosing region duodenum (cannula)"}, "[7]": {"conditions": "dosing region ileum-jejunum junction (cannula)"}},
  "note": "Where two headings read alike, the source gives them in different places.",
  "data": [
    {"smiles": "CC(C)(CCn1cnc(-c2cccnc2)c1)NCC(=O)N1CCC[C@H]1C#N", "note": "[(2S)-1-{[1,1-Dimethyl-3-(4-pyridin-3-yl-imidazol-1-yl)-propylamino]-acetyl}-pyrrolidine-2-carbonitrile]", "values": [
      {"measurement": "systemic exposure to the compound", "setting": "[1]; [4]", "value": "lowest systemic exposure"},
      {"measurement": "AUC", "setting": "[1]; [5]", "value": 354, "unit": "ng·h/mL"},
      {"measurement": "AUC", "setting": "[1]; [6]", "value": 3890, "unit": "ng·h/mL"},
      {"measurement": "AUC", "setting": "[1]; [7]", "value": 1350, "unit": "ng·h/mL"},
      {"measurement": "AUC", "setting": "[1]; po, dosing region stomach (gavage)", "value": 2280, "unit": "ng·h/mL"},
      {"measurement": "Mean Plasma DPPIV Inhibition", "setting": "plasma DPPIV; [5]", "value": 45, "unit": "% baseline"},
      {"measurement": "Mean Plasma DPPIV Inhibition", "setting": "plasma DPPIV; [6]", "value": 60, "unit": "% baseline"},
      {"measurement": "Mean Plasma DPPIV Inhibition", "setting": "plasma DPPIV; [7]", "value": 45, "unit": "% baseline"},
      {"measurement": "Mean Plasma DPPIV Inhibition", "setting": "plasma DPPIV; dosing region stomach (gavage)", "value": 65, "unit": "% baseline"},
      {"measurement": "average plasma DPPIV inhibition", "setting": "plasma DPPIV; 5 mg/kg, delivery to the ileum-jejenum junction or colon, versus other sites", "value": "lowest average plasma DPPIV inhibition"},
      {"measurement": "effect on glucose", "setting": "blood glucose; [4]", "value": "highest effect on glucose"},
      {"measurement": "blood glucose compared to control", "setting": "blood glucose; delivery to the stomach, ileum or the ascending colon", "value": "reduction in blood glucose"},
      {"measurement": "Mean Delta Glucose AUEC", "setting": "blood glucose; dosing region ascending colon", "value": 52, "unit": "% Control"},
      {"measurement": "Mean Delta Glucose AUEC", "setting": "blood glucose; dosing region duodenum", "value": 116, "unit": "% Control"},
      {"measurement": "Mean Delta Glucose AUEC", "setting": "blood glucose; dosing region ileum-jejunum junction", "value": 76, "unit": "% Control"},
      {"measurement": "Mean Delta Glucose AUEC", "setting": "blood glucose; dosing region stomach", "value": 88, "unit": "% Control"}
    ]},
    {"smiles": "CS(=O)(=O)O.Cc1oc(-c2ccccc2)nc1CCNCC(=O)N1CCC[C@H]1C#N", "note": "[(2S)-1-{[2-(5-Methyl-2-phenyl-oxazol-4-yl)-ethylamino]-acetyl}-pyrrolidine-2-carbonitrile mesylate]", "values": [
      {"measurement": "AUC", "setting": "[2]; dosing region colon", "value": 3540, "unit": "ng·h/mL"},
      {"measurement": "Cmax", "setting": "[2]; dosing region colon", "value": 736, "unit": "ng/mL"},
      {"measurement": "AUC", "setting": "[2]; dosing region duodenum", "value": 14200, "unit": "ng·h/mL"},
      {"measurement": "Cmax", "setting": "[2]; dosing region duodenum", "value": 7580, "unit": "ng/mL"},
      {"measurement": "AUC", "setting": "[2]; dosing region ileum", "value": 12300, "unit": "ng·h/mL"},
      {"measurement": "Cmax", "setting": "[2]; dosing region ileum", "value": 5420, "unit": "ng/mL"},
      {"measurement": "AUC", "setting": "[2]; dosing region stomach", "value": 12200, "unit": "ng·h/mL"},
      {"measurement": "Cmax", "setting": "[2]; dosing region stomach", "value": 5570, "unit": "ng/mL"},
      {"measurement": "absorption and elimination rate (plasma profiles)", "setting": "[2]; all routes of administration except for the colon", "value": "broadly similar"},
      {"measurement": "period for which plasma concentrations were sustained", "setting": "[2]; colon delivery", "value": "6-8 hours post dose"},
      {"measurement": "plasma concentrations", "setting": "[2]; colon delivery versus other routes", "value": "substantially lower"},
      {"measurement": "Average exposure", "setting": "[2]; delivery to the proximal small bowel (duodenum) versus other sites", "value": "slighter greater"},
      {"measurement": "Mean Delta Blood Glucose AUEC", "setting": "[3]; dosing region PSB", "value": 130, "unit": "% Control"},
      {"measurement": "Mean Plasma GLP-1 AUEC", "setting": "[3]; dosing region PSB", "value": 180, "unit": "% Control"},
      {"measurement": "Mean Plasma Insulin AUEC", "setting": "[3]; dosing region PSB", "value": 160, "unit": "% Control"},
      {"measurement": "Mean Delta Blood Glucose AUEC", "setting": "[3]; dosing region colon", "value": 83, "unit": "% Control"},
      {"measurement": "Mean Plasma GLP-1 AUEC", "setting": "[3]; dosing region colon", "value": 87, "unit": "% Control"},
      {"measurement": "Mean Plasma Insulin AUEC", "setting": "[3]; dosing region colon", "value": 101, "unit": "% Control"},
      {"measurement": "Mean Delta Blood Glucose AUEC", "setting": "[3]; dosing region ileum", "value": 47, "unit": "% Control"},
      {"measurement": "Mean Plasma GLP-1 AUEC", "setting": "[3]; dosing region ileum", "value": 340, "unit": "% Control"},
      {"measurement": "Mean Plasma Insulin AUEC", "setting": "[3]; dosing region ileum", "value": 47, "unit": "% Control"},
      {"measurement": "Mean Delta Blood Glucose AUEC", "setting": "[3]; dosing region stomach", "value": 55, "unit": "% Control"},
      {"measurement": "Mean Plasma GLP-1 AUEC", "setting": "[3]; dosing region stomach", "value": 151, "unit": "% Control"},
      {"measurement": "Mean Plasma Insulin AUEC", "setting": "[3]; dosing region stomach", "value": 65, "unit": "% Control"},
      {"measurement": "Mean blood glucose area under the effect curve (AUEC) following an OGTT vs control", "setting": "[3]; both stomach and ileal delivery", "value": "substantially decreased"},
      {"measurement": "active glucagon-like peptide 1 (primary mechanistic biomarker)", "setting": "[3]; only ileal delivery", "value": "sustained systematic increase"}
    ]}
  ]
}
